Test results published in patent US11702392B2, “Pyrimidinone derivatives as SHP2 antagonists” (MERCK PATENT GMBH, priority 2019, dated 2023).
“Also recorded” adds a separate entry of the source.

Key:
[1] = biological target: Full length SHP2 protein (Recombinant Human SHP-2) (Homo sapiens (Human), UniProt Q06124); assay: SHP2 biochemical assay (DiFMUP substrate, activating peptide IRS1_2pY); conditions: activating peptide IRS1_2pY 140 nM, 60 min
Method: The inhibition of SHP2 by compounds of the invention was monitored using the surrogate substrate DiFMUP after protein activation by a peptide bearing two appropriately spaced phosphotyrosine. […] The generation of the DiFMU product by activated SHP2 was monitored through Fluorescence measurement with a PerkinElmer Envision reader. The inhibitor dose response curves were analyzed with Genedata Screener.

[2] = Pharmacokinetics in female CD1 mice (oral / intravenous); assay type: in vivo; conditions: mouse; for AUC ng/ml*h (normalized to 1 mp/k) / Cmax ng/mL (normalized to 1 mg/k): normalized to 1 mg/kg; for Fz: oral
Method: Female CD1 mice (N=3) received a single oral (gavage) or a single intravenous (bolus) injection of compound. […] Consecutive blood samples were taken sub-lingually under isofluorane inhalation from animals after 0.083 (IV), 0.25, 0.5, 1, 2, 4, 6 and 24 h and were further processed to obtain plasma. Samples were protein precipitated and analysed by LC/MS/MS.

EBC-1 xenografts = assay: EBC-1 xenograft (cMET amplified non-small cell lung cancer); assay type: in vivo; conditions: 100 mg/kg QD oral gavage, CD-1 nude mice
Text: CD-1 nude mice were inoculated with 5 million EBC-1 cells.

[3] = biological target: auto-activated mutant protein SHP2 E76K (Homo sapiens (Human), UniProt Q06124, E76K); assay: SHP2 E76K active mutant biochemical assay with and without activating peptide
auto-activated mutant protein SHP2 E76K, sequence (Q06124 whole entry E76K): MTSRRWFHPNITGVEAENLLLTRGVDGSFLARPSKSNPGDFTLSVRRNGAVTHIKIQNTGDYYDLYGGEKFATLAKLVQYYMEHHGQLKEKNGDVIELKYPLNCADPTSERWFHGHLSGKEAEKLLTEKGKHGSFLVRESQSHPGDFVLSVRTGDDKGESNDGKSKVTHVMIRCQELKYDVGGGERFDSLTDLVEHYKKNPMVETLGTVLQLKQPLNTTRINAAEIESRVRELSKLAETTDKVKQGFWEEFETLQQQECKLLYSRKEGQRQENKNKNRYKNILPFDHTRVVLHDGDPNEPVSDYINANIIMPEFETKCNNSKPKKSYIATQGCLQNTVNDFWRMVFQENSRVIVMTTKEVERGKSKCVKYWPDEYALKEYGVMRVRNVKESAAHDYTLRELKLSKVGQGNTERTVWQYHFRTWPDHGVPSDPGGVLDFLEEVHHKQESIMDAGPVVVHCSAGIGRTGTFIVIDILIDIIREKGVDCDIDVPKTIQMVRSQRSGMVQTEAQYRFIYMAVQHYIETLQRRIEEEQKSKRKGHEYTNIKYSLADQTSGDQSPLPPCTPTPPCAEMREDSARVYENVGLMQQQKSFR
Method: The inhibition of SHP2 by compounds of the invention was monitored using the surrogate substrate DiFMUP after protein activation by a peptide bearing two appropriately spaced phosphotyrosine. Full length SHP2 protein (Recombinant HumanSHP-2, E. coli derived Ser2Arg593, N-terminal 6His tag from R&D systems; 0.0.24 nM) was incubated with activating peptide, IRSI_2pY (New England Peptide, 140 nM) and DiFMUP (molecular probes, 80 uM) at RT in buffer (HEPES pH 7.2 60 mM, DDT 5 mM, KCl 75 mM, NaCl 75 mM, EDTA 1 mM, Tween 20 0.05%) in presence of compound (10 concentrations range, top concentration 50 μM) for 60 min. The generation of the DiFMU product by activated SHP2 was monitored through Fluorescence measurement with a PerkinElmer Envision reader. The inhibitor dose response curves were analyzed with Genedata Screener.

MiaPaCa-2 xenografts = assay type: in vivo, mouse; conditions: 50 or 100 mg/kg QD oral gavage, H2D Rag2 mice
Text: H2D Rag2 mice were inoculated with 3 million MiaPaCa-2 cells.

U87-MG xenografts = assay: U87-MG xenograft (PTEN LOF glioblastoma); assay type: in vivo, mouse; conditions: 50 mg/kg QD oral gavage, CD-1 nude mice
Text: CD-1 nude mice were inoculated with 10 million U87-MG cells.

HPAF-2 xenografts = conditions: 50 mg/kg compound 23B or 60 mg/kg RMC-4550 QD oral gavage, CB17.SCID mice
KYSE-520 xenografts = assay: Kyse-520 xenograft (EGFR amplified esophageal cancer); conditions: H2D Rag2 mice
Text: H2D Rag2 mice were inoculated with 5 million KYSE-520 cells mixed with matrigel.
In vivo efficacy of compound 74a in an EGFR amplified setting was investigated in Kyse-520 xenografts. H2D Rag2 mice were inoculated with 5 million KYSE-520 cells mixed with matrigel.

[4] = biological target: Kv11.1 (hERG) ion channel (Homo sapiens (Human), UniProt Q12809); assay: hERG patch clamp in Kv11.1 (hERG) transfected HEK293 cells; assay type: cell-based
Kv11.1 (hERG) ion channel, sequence (Q12809 whole entry): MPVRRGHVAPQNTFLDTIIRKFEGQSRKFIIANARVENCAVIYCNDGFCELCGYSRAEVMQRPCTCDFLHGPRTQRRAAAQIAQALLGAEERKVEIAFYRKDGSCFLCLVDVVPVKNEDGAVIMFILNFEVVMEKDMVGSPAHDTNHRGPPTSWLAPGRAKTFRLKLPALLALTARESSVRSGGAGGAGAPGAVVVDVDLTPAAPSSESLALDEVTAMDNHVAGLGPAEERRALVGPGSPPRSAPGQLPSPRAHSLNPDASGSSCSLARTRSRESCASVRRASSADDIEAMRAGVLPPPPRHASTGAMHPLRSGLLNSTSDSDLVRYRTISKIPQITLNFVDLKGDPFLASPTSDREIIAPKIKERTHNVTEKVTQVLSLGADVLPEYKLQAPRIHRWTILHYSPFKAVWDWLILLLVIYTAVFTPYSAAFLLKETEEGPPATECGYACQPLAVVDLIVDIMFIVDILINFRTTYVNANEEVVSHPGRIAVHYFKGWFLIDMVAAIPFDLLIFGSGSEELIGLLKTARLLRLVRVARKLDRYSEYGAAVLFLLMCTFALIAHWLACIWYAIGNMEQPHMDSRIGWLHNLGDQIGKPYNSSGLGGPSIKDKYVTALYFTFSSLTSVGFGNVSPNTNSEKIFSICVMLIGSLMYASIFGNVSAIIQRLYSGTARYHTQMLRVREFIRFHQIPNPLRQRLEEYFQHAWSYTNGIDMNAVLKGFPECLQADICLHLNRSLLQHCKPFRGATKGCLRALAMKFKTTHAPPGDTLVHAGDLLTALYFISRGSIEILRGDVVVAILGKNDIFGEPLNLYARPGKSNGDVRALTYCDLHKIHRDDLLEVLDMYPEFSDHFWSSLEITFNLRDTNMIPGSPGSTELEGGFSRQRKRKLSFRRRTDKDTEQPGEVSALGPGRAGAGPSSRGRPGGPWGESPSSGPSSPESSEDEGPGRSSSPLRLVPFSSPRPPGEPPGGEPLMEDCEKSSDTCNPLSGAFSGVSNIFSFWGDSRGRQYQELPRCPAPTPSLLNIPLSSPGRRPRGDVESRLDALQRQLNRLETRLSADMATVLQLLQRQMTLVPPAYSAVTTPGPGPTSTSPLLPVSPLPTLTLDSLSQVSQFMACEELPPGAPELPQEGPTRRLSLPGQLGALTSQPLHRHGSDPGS
Method: Inhibition of the ion channel hErg (or Kv11.1) current causes QT interval prolongation resulting in potentially fatal ventricular tachyarrhythmia called Torsade de Pointes.
hERG ion channel activity was assessed using a patch clamp technique in stable Kv11.1 (hERG) transfected human embryonic kidney cell line (HEK293). Whole cell recordings were carried out with an automated patch clamp device Patchliner™ from Nanion Technologies, Munich following manufacturer recommendation. Different concentrations of the test compound or reference, quinidine, were applied to whole cells suspension and current was measured using a pulse pattern with fixed amplitudes.

pERK1/2 in KYSE520 cells = assay: p-Erk cellular assay in KYSE520 (Mesoscale); assay type: cell-based; conditions: Homo sapiens, KYSE-520, 2 h, read-out: pERK1/2 in Cell KYSE520 IC50
Method: The effect of SHP2 inhibitors on pERK level was assessed using phospho-specific antibody using Mesoscale quantification platform. For measuring change in pERK levels using mesoscale, 30,000 cells of KYSE520 cells were plated in 96-well tissue culture treated plate in 175 μl volume of media. After an overnight incubation at 37° C., various SHP2 inhibitors were added in different concentration to each well maintaining duplicate wells across plates and incubated with compounds for 2 h at 37° C. followed by a wash with ice cold PBS buffer. The cells were then lysed in lysis buffer and processed and analyzed for p-ERK/ERK as per manufacturer's instructions (Mesoscale discovery, cat No. […]-3).

[5] = test system: MCP-1 production in U937 cells; assay: Cytokine release assay: MCP-1 production in U937 cells stimulated with IL-6; assay type: cell-based
Method: Selected compounds were tested in a cytokine release assay in monocytic cells (U937) to test their anti-inflammatory properties. Cells were plated in a 96-well cell culture plate using serum-free media. The cells were treated with indicated concentrations of SHP-2 inhibitors for 30 minutes followed by overnight stimulation with recombinant IL-6 (50 ng/mL). The MCP-1 production was measured in the culture supernatant using a MCP-1 AlphaLISA kit (Perkin Elmer).

[6] = 10, 30 or 100 mg/kg QD oral gavage
[7] = 0.8, 2.5 or 8 mg/kg QD oral gavage

Full length SHP2 protein (Recombinant Human SHP-2), sequence (Q06124 2-593): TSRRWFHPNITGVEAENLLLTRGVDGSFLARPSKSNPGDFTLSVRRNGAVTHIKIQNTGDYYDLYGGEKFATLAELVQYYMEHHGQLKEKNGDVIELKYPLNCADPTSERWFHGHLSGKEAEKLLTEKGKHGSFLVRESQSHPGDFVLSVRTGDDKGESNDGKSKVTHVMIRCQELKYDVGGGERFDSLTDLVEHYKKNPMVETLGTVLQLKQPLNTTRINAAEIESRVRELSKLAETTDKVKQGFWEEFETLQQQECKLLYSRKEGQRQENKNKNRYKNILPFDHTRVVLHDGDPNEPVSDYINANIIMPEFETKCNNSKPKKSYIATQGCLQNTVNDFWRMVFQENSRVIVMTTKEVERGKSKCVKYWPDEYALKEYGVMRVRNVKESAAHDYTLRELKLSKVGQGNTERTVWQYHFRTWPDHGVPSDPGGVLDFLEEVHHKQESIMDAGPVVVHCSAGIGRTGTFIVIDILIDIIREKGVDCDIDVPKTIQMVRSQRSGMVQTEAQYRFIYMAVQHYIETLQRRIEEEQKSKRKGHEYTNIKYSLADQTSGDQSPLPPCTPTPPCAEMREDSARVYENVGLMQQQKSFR

| SMILES | IC50 [1] | AUC ng/ml*h (normalized to 1 mp/k) [2] | Cmax ng/mL (normalized to 1 mg/k) [2] | Fz [2] | also measured |
| --- | --- | --- | --- | --- | --- |
| C[C@@H]1OCC2(CCN(c3cc(=O)n(-c4cccc(Cl)c4Cl)c(C(F)F)n3)CC2)[C@@H]1N (atropisomer, axis not shown; (M)) [Compound 20b, (3M)-6-[(3S,4S)-4-amino-3-methyl-2-oxa-8-azaspiro[4.5]decan-8-yl]-3-(2,3-dichlorophenyl)-2-(difluoromethyl)-3,4-dihydropyrimidin-4-one] | 1100 nM | – | – | – | – |
| Cc1c(N2CCC3(CC2)Cc2ccccc2[C@@H]3N)nc(C)n(-c2cccc(Cl)c2Cl)c1=O (atropisomer, axis not shown; (M)) [Compound 74c, (3M)-6-[(1R)-1-amino-1,3-dihydrospiro[indene-2,4′-piperidin]-1′-yl]-3-(2,3-dichlorophenyl)-2,5-dimethyl-3,4-dihydropyrimidin-4-one] | 250 nM | – | – | – | – |
| Cc1c(N2CCC3(CCC[C@@H]3N)CC2)nc(N)n(-c2cccc(Cl)c2Cl)c1=O (atropisomer, axis not shown; (M)) [Compound 78c, (3M)-2-amino-6-[(1S)-1-amino-8-azaspiro[4.5]decan-8-yl]-3-(2,3-dichlorophenyl)-5-methyl-3,4-dihydropyrimidin-4-one] | 2100 nM | – | – | – | – |
| Cc1nc(N2CCC3(CC2)CO[C@@H](C)[C@H]3N)cc(=O)n1-c1cccc(Cl)c1Cl (single isomer, unassigned) [Compound 3b] | – | 1765 ng·h/mL | 223 ng/mL | 85% | – |
| Cc1c(N2CCC3(CC2)CO[C@@H](C)[C@H]3N)nc(C)n(-c2cccc(Cl)c2Cl)c1=O (single isomer, unassigned) [Compound 23b] | – | 1222 ng·h/mL | 177 ng/mL | 100% | tolerability (EBC-1 xenografts): well tolerated; tumor growth (EBC-1 xenografts): reduces tumor growth; also recorded: Significant tumor growth inhibition; IC50 [3]: 12 µM; tolerability (MiaPaCa-2 xenografts): well tolerated; tumor growth (U87-MG xenografts): reduces tumor size as compared to baseline; also recorded: Tumor regression; tolerability (HPAF-2 xenografts): well tolerated; tumor growth (HPAF-2 xenografts): Significant tumor inhibition; tolerability (KYSE-520 xenografts; [6]): well tolerated; tumor growth (KYSE-520 xenografts; [6]): reduce growth of the tumor a significant amount; also recorded: dose-dependent significant tumor growth inhibition |
| Cc1c(N2CCC3(CC2)Cc2ncccc2[C@H]3N)nc(C)n(-c2cccc(Cl)c2Cl)c1=O (single isomer, unassigned) [Compound 66b] | – | 2387 ng·h/mL | 367 ng/mL | 100% | Split between hErg and cell activity Ki (patch Clamp)/IC50 (KYSE) [4]: 580 |
| Cc1c(N2CCC3(CCC[C@H]3N)CC2)nc(C)n(-c2cccc(Cl)c2Cl)c1=O (single isomer, unassigned) [Compound 67a] | 19000 nM | – | – | – | – |
| Cc1c(N2CCC3(CCC[C@H]3N)CC2)nc(C)n(-c2cccc(Cl)c2Cl)c1=O (single isomer, unassigned) [Compound 67b] | – | – | – | – | IC50 (pERK1/2 in KYSE520 cells): 198 nM |
| Cc1c(N2CCC3(CC2)Oc2cnccc2C3N)nc(C)n(-c2cccc(Cl)c2Cl)c1=O (single isomer, unassigned) [Compound 80c] | – | – | – | – | IC50 (pERK1/2 in KYSE520 cells): 420 nM |
| Cc1c(N2CCC3(CC2)Oc2ccccc2[C@H]3N)nc(C)n(-c2cccc(Cl)c2Cl)c1=O (single isomer, unassigned) [Compound 81b] | – | 3270 ng·h/mL | 450 ng/mL | 48% | – |
| Cc1c(N2CCC3(CC2)Cc2ccccc2[C@H]3N)nc(C)n(-c2cccc(Cl)c2Cl)c1=O [Compound 74a, (3M)-6-[(1S)-1-amino-1,3-dihydrospiro[indene-2,4′-piperidin]-1′-yl]-3-(2,3-dichlorophenyl)-2,5-dimethyl-3,4-dihydropyrimidin-4-one] | 1 nM | 2108 ng·h/mL | 129 ng/mL | 100% | tolerability (KYSE-520 xenografts; [7]): well tolerated; tumor growth (KYSE-520 xenografts; [7]): reduce growth of the tumor a significant amount; also recorded: dose-dependent significant tumor growth inhibition |
| Cc1c(N2CCC3(CC2)c2ncccc2C[C@H]3N)nc(C)n(-c2cccc(Cl)c2Cl)c1=O [Compound 75, (3M)-6-[(6R)-6-amino-5,6-dihydrospiro[cyclopenta[b]pyridine-7,4′-piperidin]-1′-yl]-3-(2,3-dichlorophenyl)-2,5-dimethyl-3,4-dihydropyrimidin-4-one] | 120 nM | – | – | – | IC50 (pERK1/2 in KYSE520 cells): 824 nM |
| Cc1c(N2CCC3(CC2)C[C@@H](C)C[C@H]3N)nc(C)n(-c2cccc(Cl)c2Cl)c1=O [Compound 77, (3M)-6-[(1R,3R)-1-amino-3-methyl-8-azaspiro[4.5]decan-8-yl]-3-(2,3-dichlorophenyl)-2,5-dimethyl-3,4-dihydropyrimidin-4-one] | – | – | – | – | MCP-1 production (FIG. 1) [5]: suppressed MCP-1 production |
| Cc1c(N2C[C@H]3CC(CO)C[C@@]3(CN)C2)nc(C)n(-c2cccc(Cl)c2Cl)c1=O (stereo partly drawn) [Compound 101, (3M)-6-[(3aR,6aS)-3a-(aminomethyl)-5-(hydroxymethyl)-octahydrocyclopenta[c]pyrrol-2-yl]-3-(2,3-dichlorophenyl)-2,5-dimethyl-3,4-dihydropyrimidin-4-one] | 230 nM | – | – | – | – |
| Cc1nc(N2CCC3(CC2)CO[C@@H](C)[C@H]3N)c(CO)nc1-c1cccc(Cl)c1Cl [RMC-4550, reference compound] | – | 735 ng·h/mL | 85 ng/mL | 86% | tumor growth (HPAF-2 xenografts): Significant tumor inhibition |
